The values that follow come from patent US20240325420A1, “COMPOSITION INCLUDING PAEONIFLORIN FOR PREVENTION OR TREATMENT OF CACHEXIA AND MUSCLE LOSS” (CHUNG ANG UNIVERSITY INDUSTRY ACADEMIC COOPERATION …, priority 2021, published 2024).

What all share (assay type): in vivo
The subject of assay [1] is Balb/c mice with cisplatin-induced cachexia. Description: Body weight and muscle mass in cisplatin-treated Balb/c mice. On the procedure: The animal experiments were performed in accordance with internationally accepted principles for laboratory animal use and care, and the corresponding study protocol was reviewed and approved by the Institutional Animal Care and Use Committee (IACUC) at Chung-Ang University (approval #2021-00022). Four-week-old female C57BL/6 mice and Balb/c mice were purchased from Raonbio Inc. (Yongin, Korea) and were provided with standard laboratory diet and water ad libitum in the animal facility of Chung-Ang University. After a week of acclimation, the mice were intraperitoneally injected three times with 3 mg/kg/day cisplatin, suspended in 200 μL saline, every other day. Control group mice (sham-treated mice) were injected with the same volume of saline under the same regimen. The cisplatin-treated groups were orally administered paeoniflroin (Pae) or megestrol acetate (MA), suspended in 200 μL distilled water, every day until euthanasia.
Specifically, the cisplatin-treated groups were orally administered paeoniflorin (prepared in Example 1) at a dose of 5 (Pae 5 group), 10 (Pae 10 group), or 20 (Pae 20 group) mg/kg once daily for 9 days. The comparative drug-treated group was orally administered megestrol acetate (MA), which is currently most commonly prescribed for cancer cachexia patients in clinical practice, at a dose of 160 mg/kg (=800 mg [daily human dose]/60 kg [average human body weight]×12 [dose equivalent factor based on human:mouse body surface area ratio], once daily for 9 days.
(§1) In addition, cisplatin-treated mice orally administered the same volume of distilled water were designated as the vehicle group. After completion of drug treatment, the mice of each group were euthanized with 10 mg/kg alfaxalone (Jurox, Rutherford, Australia). Blood was collected in test tubes containing EDTA, and centrifuged, and plasma was separated therefrom. Gastrocnemius and quadriceps skeletal muscles were dissected and weighed. The skeletal muscles were rapidly frozen in liquid nitrogen to be used for RT-qPCR, Western blotting, and ELISA.

The subject of assay [2] is Balb/c mice with colon-26 carcinoma-induced cachexia. Description: Body weight and muscle mass in Balb/c mice with colon-26 carcinoma-induced cachexia. To be noted: colon-26 carcinoma-injected, paeoniflorin orally once daily for 9 days vs colon-26 carcinoma-injected group. On the procedure:
(§2) As the experimental animals, 4-week-old female C57BL/6 mice and Balb/c mice weighing 18 g to 20 g were purchased from Raon Bio (Yongin, Korea), acclimatized in the laboratory animal facility for one week, and then used in the experiment. During the experiment period, the animals were provided with solid feed and water ad libitum, and the breeding room was maintained at a temperature of 20° C. to 24° C. and a relative humidity of 55% to 65% with a 12-hr light/12-hr dark cycle.
(§3) Mice were divided into a control group and a cachexia-induced group, and the cachexia-induced group was subdivided into a tumor cell-injected group, a tumor cell-injected and existing drug (MA, megestrol acetate)-administered group, and tumor cell-injected and paeoniflorin (Pae)-administered groups. Each group consisted of 10 animals.
(§4) Each mouse of the control group was injected subcutaneously with 100 μL of saline solution. For the cachexia-induced groups, Lewis lung carcinoma cells (C57BL/6 mice) or colon-26 carcinoma cells (Balb/c mice) were injected subcutaneously into the flank area of each mouse at a dose of 10^6 cells/100 μL/mouse. […] After completion of 9 days of administration, the muscle strength of the mice was measured using a grip strength test device (Bioseb, USA), and the endurance of the mice was measured using a treadmill device (Columbus Instrument, USA).
After completion of the experiment, the mice were euthanized, blood was collected therefrom, the body weight excluding tumors, and the weights of the hind limb gastrocnemius muscle and quadriceps muscle were measured. GDF-15 in the serum was quantified by ELISA.

For a further assay, the system named is TNF-α, IL-6 and IL-1β. Description: Protein levels of pro-inflammatory cytokines in gastrocnemius muscle, Balb/c mice. To be noted: cisplatin-treated. On the procedure: as §1
The levels of TNF-α and interleukin (IL)-6 were measured using respective mouse ELISA kits (Invitrogen, Waltham, MA, USA). IL-1β and GDF-15 levels were measured using respective Quantikine ELISA kits (R&D Systems, Minneapolis, MN, USA).

The subject of assay [3] is Balb/c mice with colon-26 carcinoma-induced cachexia. Description: Muscle strength and endurance in Balb/c mice with colon-26 carcinoma-induced cachexia. The settings on record: colon-26 carcinoma-injected, paeoniflorin orally for 9 days. On the procedure:
as §2, §3, §4

Assay [4] deals with C57BL/6 mice with Lewis lung carcinoma-induced cachexia. Kind of assay: Muscle strength and endurance in C57BL/6 mice with Lewis lung carcinoma-induced cachexia. On the procedure: as §2, §3, §4

For the compound `C[C@@]12C[C@@]3(O)O[C@@H](O1)[C@]1(COC(=O)c4ccccc4)[C@H]3C[C@@]12O[C@@H]1O[C@H](CO)[C@@H](O)[C@H](O)[C@H]1O` [paeoniflorin], the body weight result in assay [1] (Pae 5, Pae 10, Pae 20 (mg/kg orally daily) vs negative control group, FIG. 2A) is “increased”; in assay [2] (FIG. 15A), “significantly increased”. Moreover, the “weight of gastrocnemius muscle” value in assay [1] (Pae 5, Pae 10, Pae 20 vs negative control group, FIG. 2B) is recorded as “increased”; in assay [2] (FIG. 15B), “significantly increased”. Moreover, the “weight of quadriceps muscle” value in assay [1] (Pae 5, Pae 10, Pae 20 vs negative control group, FIG. 2C) is recorded as “increased”; in assay [2] (FIG. 15C), “significantly increased”. The “TNF-α protein level in the gastrocnemius muscle” value in the assay on TNF-α, IL-6 and IL-1β (FIG. 9A) was “similarly obtained”. In addition, the “IL-6 protein level in the gastrocnemius muscle” value with TNF-α, IL-6 and IL-1β (FIG. 9B) is “similarly obtained”. In the assay on TNF-α, IL-6 and IL-1β (FIG. 9C), the “IL-1β protein level in the gastrocnemius muscle” value is recorded as “similarly obtained”. The muscle strength entry in assay [3] (FIG. 17A) is “significantly increased”; in assay [4] (C57BL/6 mice, Lewis lung carcinoma-injected, paeoniflorin orally for 9 days, FIG. 16A) it was “significantly increased”. The endurance result in assay [3] (FIG. 17B) is given as “significantly increased”; in assay [4] (C57BL/6 mice, Lewis lung carcinoma-injected, paeoniflorin orally for 9 days, FIG. 16B), “significantly increased”. Besides, the “effect on muscle function compared with megestrol acetate (MA)” value in assay [4] (Lewis lung carcinoma C57BL/6 mice, paeoniflorin 10 to 20 mg/kg/day vs megestrol acetate 160 mg/kg/day) is given as “better effect”.
